Test results: the NIST ThermoML archive (doi:10.1021/je300628e)

Tests used:
[1] = 101 kPa, Liquid; for viscosity: Concentric cylinders viscometry; for mass density: Vibrating tube method
[2] = wn = mass fraction of the nth substance listed; conditions: 101 kPa, Liquid; for viscosity: Concentric cylinders viscometry; for mass density: Vibrating tube method

CCCCn1cc[n+](C)c1.F[B-](F)(F)F [1-butyl-3-methylimidazolium tetrafluoroborate]
[1]
Conditions | mass density [kg/m3] | viscosity [mPa·s]
303.15 K | 1191.3 | 71.63
313.15 K | 1182.3 | 46.96
333.15 K | 1166.7 | 23.8
353.15 K | 1154.9 | 13.94
363.15 K | 1139.4 | 11.32

CCn1cc[n+](C)c1.O=S(=O)([O-])C(F)(F)F [1-ethyl-3-methylimidazolium trifluoromethanesulfonate]
[1]
Conditions | mass density [kg/m3] | viscosity [mPa·s]
303.15 K | 1381.8 | 36.14
313.15 K | 1371.7 | 26.65
333.15 K | 1350.9 | 16.45
353.15 K | 1338.7 | 12.17
363.15 K | 1326 | 11.14

CN(CCO)CCO [N-methyldiethanolamine] + O
[2]
Conditions | mass density, 303.15 K [kg/m3] | mass density, 313.15 K [kg/m3] | mass density, 333.15 K [kg/m3] | mass density, 353.15 K [kg/m3] | mass density, 363.15 K [kg/m3] | viscosity, 303.15 K [mPa·s] | viscosity, 313.15 K [mPa·s] | viscosity, 333.15 K [mPa·s] | viscosity, 353.15 K [mPa·s] | viscosity, 363.15 K [mPa·s]
w1 = 0.234 | 1018.7 | 1014.1 | 1003 | 987.2 | 981.3 | 2.285 | 1.612 | 1.418 | 1.121 | 1.112
w1 = 0.459 | 1018.3 | 1011 | 1005.2 | 989.6 | 971.8 | 2.85 | 2.238 | 1.621 | 1.485 | 1.337

CCCCn1cc[n+](C)c1.N#CN=C=[N-] [1-butyl-3-methylimidazolium dicyanamide]
[1]
Conditions | mass density [kg/m3] | viscosity [mPa·s]
303.15 K | 1055.1 | 23.92
313.15 K | 1049.3 | 17.12
333.15 K | 1037.1 | 10.49
353.15 K | 1024.2 | 6.773
363.15 K | 1019.3 | 5.523

CN(CCO)CCO [N-methyldiethanolamine]
[1]
Conditions | mass density [kg/m3] | viscosity [mPa·s]
303.15 K | 1034.7 | 58.62
313.15 K | 1027.1 | 37.68
333.15 K | 1013 | 15.26
353.15 K | 996.3 | 6.756
363.15 K | 993.9 | 4.539
